This note sets out measurements from patent US9550732B2, “Salt of pyrrolidin-3-yl acetic acid derivative and crystals thereof” (Eisai R&D Management Co., Ltd., priority 2013, dated 2017).

This test deals with T cell transfer colitis model. Nature of the test: Amelioration of body weight loss in T cell transfer-induced colitis model. It counts as in vivo. The settings on record: colitis-induced SCID mice injected with CD4-positive CD45RB-high cells; orally once a day from Day 16 to 31; body weight Day 19-31. How it is done: By using colitis-induced SCID mice in which CD4-positive, CD45RB-high cells isolated from BALB/c mice splenocytes were injected, the efficacy of the example compounds was evaluated by the body weight changes. The experiment was performed over 31 days. On Day 1, CD4-positive, CD45RB-high cells isolated from the spleen of BALB/c mice (5×10^5 cells/mouse) were intravenously administered to SCID mice. From Day 16 to 31, the example compound was orally administered to the SCID mice once a day, followed by measuring body weights of all animals on Day 19, 22, 24, 26, 29 and 31. The efficacy was evaluated by body weight changes on Day 19, 22, 24, 26, 29 or 31. The body weight change (%) was determined by the formula shown below, where [A] is the body weight on Day 16, and [B] is the body weight on each day of body weight measurement (Day 19, 22, 24, 26, 29 or 31). body weight change (%)=B/A×100 (2) Results The results are shown in FIG. 6. The abscissa in the figures indicates the number of days elapsed, where the day on which CD4-positive, CD45RB-high cells isolated from the spleen of BALB/c mice (5×10^5 cells/mouse) were intravenously administered to SCID mice is Day 0.

As for `C[C@H]1CN(Cc2c(Cl)cccc2C(F)(F)F)C[C@@]1(CC(=O)O)C(=O)NC1CCN(CC2=CCCCC2)CC1` [compound (1), 2-[(3S,4R)-1-{[2-chloro-6-(trifluoromethyl)phenyl]methyl}-3-{[1-(cyclohex-1-en-1-ylmethyl)piperidin-4-yl]carbamoyl}-4-methylpyrrolidin-3-yl]acetic acid], the “effect on body weight change (FIG. 6)” value is reported as “weight reduction-suppressing effect”.
